Drawing on PubChem BioAssay (NCI), this text covers TGI and GI50 for 11 compounds.

Holding throughout (experiment): NCI-60 cell line screen, 48 h
For assay [1], the system named is 786-0 renal.
Assay [2] relates to SF-539 CNS.
The subject of assay [3] is NCI-H460 lung.
In assay [4] the test system is UACC-257 melanoma.
Assay [5] deals with SNB-75 CNS.
For assay [6], the system named is RPMI-8226 leukemia.
The test system of assay [7] is COLO 205 colon.
Assay [8] has as its system A498 renal.
Assay [9] relates to LOX IMVI melanoma.
For assay [10], the system named is MCF7 breast.

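Five concentrations, 48 hours, 96-well plates. GI50 is the concentration that inhibits growth by half. At the TGI there is no net growth.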

Turning to `COc1cc2c(cc1O)[C@H](Cc1ccc(Oc3cc(C[C@H]4c5cc(OC)c(OC)cc5CCN4C)ccc3OC)cc1)NCC2`, the TGI in assay [1] is 25.2 µM; in assay [2], 22.8 µM; in assay [3], 27.7 µM; in [4] it was 29.7 µM; in assay [5] it was 21.8 µM; in assay [6], 46.8 µM. For the same compound, the TGI in assay [7] was 49.5 µM; in assay [8], 28.3 µM; in [9], 22.4 µM.

In the case of `COc1nc2c(cc1S(=O)(=O)c1ccccc1)CCc1c-2cnn1-c1ccccc1Cl`, the GI50 in assay [1] was 7.28 µM; in assay [2] it was above 100 µM; in [3], 26.3 µM; in assay [4] it was 21.8 µM; in assay [5], 5.19 µM; in [6], 5.39 µM. For the same compound, the GI50 in assay [7] is 9.07 µM; in assay [10] it was 4.13 µM; in [9] it was above 100 µM. Besides, the TGI in [1], in assay [2], in assay [3], in assay [4], in [5] and in assay [6] was above 100 µM each time. Also, the TGI in assay [7], in assay [10] and in [9] was above 100 µM each time.

With `COc1ccc(-n2cc(-c3ccc(OC)c(OC)c3)[nH]c2=S)cc1Cl`, the GI50 in [1] was 52.3 µM; in assay [2], 39.4 µM; in assay [3], above 100 µM; in assay [5], 4.75 µM; in assay [6], above 100 µM; in assay [7], above 100 µM. For the same compound, the GI50 in [10], in assay [8] and in assay [9] was above 100 µM each time. Further, the TGI was above 100 µM in assay [1]; above 100 µM in [2]; above 100 µM in assay [3]; 21 µM in assay [5]; above 100 µM in assay [6]; above 100 µM in assay [7]. For the same compound, the TGI in assay [10], in assay [8] and in assay [9] was above 100 µM throughout.

Turning to `Cc1c(C(=O)/C=C/c2cccc3ccccc23)[n+](=O)c2ccccc2n1[O-]`, the TGI in assay [1] was determined as 26.4 µM; in assay [2] it was 23.8 µM; in [3], 32.5 µM; in [4], 26.7 µM; in assay [5], 27.2 µM; in [6] it was 41.8 µM. The TGI was 26.9 µM in assay [7], 30.8 µM in [8] and 20.6 µM in [9].

`O=C(N/N=C/c1cccc(O)c1O)N/N=C/c1cccc(O)c1O`: the TGI is above 100 µM in assay [1]; 36.2 µM in assay [2]; above 100 µM in assay [3]; 62.9 µM in [4]; 50.4 µM in [5]; 76.8 µM in assay [6]. The TGI in [7], in assay [8] and in [9] was above 100 µM in each case.

In the case of `O=C(Nc1ccccc1[N+](=O)[O-])c1ccccc1`, the TGI in [1], in assay [2], in assay [3], in assay [4], in [5] and in assay [6] was above 100 µM throughout. Moreover, the TGI in assay [7], in assay [8] and in assay [9] was above 100 µM throughout.

For `C/C(=N\NC(N)=S)c1ccc(C)cc1C`, the TGI in [1], in [2], in assay [3], in assay [4], in assay [5] and in [6] was above 100 µM throughout. Moreover, the TGI in assay [7], in assay [8] and in assay [9] was above 100 µM each time.

`O=C1CC[C@H]2CNC(=O)C[C@H]2C1`: the TGI in assay [1], in [2], in assay [3], in assay [4], in assay [5] and in assay [6] was above 100 µM in each case. Moreover, the TGI in assay [7], in assay [8] and in assay [9] was above 100 µM each time.

`COc1cccc(-c2nn(-c3ccccc3)cc2-c2ccnc(NCCCNS(=O)(=O)c3cccc(F)c3)c2)c1`: the GI50 is 4.01 µM in assay [1]; 4.93 µM in [3]; 5.12 µM in assay [4]; 4.57 µM in [5]; 2.91 µM in [6]; 2.41 µM in assay [7]. For the same compound, the results for the GI50 in [10], in assay [8] and in assay [9] were 3.21 µM, 3.52 µM and 4.05 µM, respectively. Further, the TGI in assay [1] was above 100 µM; in assay [3], above 100 µM; in assay [4] it was 39.3 µM; in [5], above 100 µM; in [6], 9.92 µM; in [7] it was 9.39 µM. For the same compound, the TGI in assay [10], in [8] and in assay [9] was above 100 µM each time.

For the compound `CN1CCCNCCN(CCc2ccccn2)CCCN(C)CC1`, the TGI in assay [1] is 53.9 µM; in assay [2], above 100 µM; in assay [3], above 100 µM; in [4], above 100 µM; in assay [5], above 100 µM; in assay [6] it was above 70.4 µM. Also, the TGI in [7] was above 62.8 µM; in assay [8], above 100 µM; in [9], above 79.1 µM.

Regarding `S=C1NCCN1C1=Nc2ccccc2CO1`, the GI50 in assay [1] is above 100 µM; in [2] it was above 100 µM; in [3], above 100 µM; in assay [4], above 100 µM; in assay [5] it was 22.5 µM; in assay [6] it was above 100 µM. The GI50 in assay [7], in assay [10] and in [9] was above 100 µM each time. For the same compound, the TGI in [1], in assay [2], in [3], in [4], in [5] and in [6] was above 100 µM in each case. For the same compound, the TGI in assay [7], in [10] and in assay [9] was above 100 µM in each case.
